Values joined by “and” are separate entries in the source; they are usually repeats but may differ in a detail not shown here. Equal values may be shown once.
Legend:
[1] = tested on: mGlu1 construct not given; assay: Fura-2 Ca2+ imaging in HEK293 cells, source data Suppl Fig1, middle group (c9-c17); construct not given; format: cell-based, rat; conditions: single-cell values, cells #15-#20; middle group of third block
Description: (§1) Supplement 41467_2022_30828_MOESM6_ESM.zip/Ojima et al_source data_Suppl Fig.xlsx, sheet "Suppl Fig1" | column: Glu; NiCl2; CuCl2; ZnCl2; CdCl2; Na2PdCl2; Pd(bpy)

mGlu1(N264H) mutant [2] = biological target: T1, mGlu1(N264H) mutant (Rattus norvegicus, UniProt P23385, N264H); assay: Inositol-1-phosphate (IP1) accumulation assay, HEK293 cells expressing mGlu1(N264H); format: cell-based
T1 construct: expressed in transfected cells; host or cells: HEK293

mGlu1(N264H) mutant [3] = biological target: T1, mGlu1(N264H) mutant; assay: Fura-2 Ca2+ imaging in HEK293 cells expressing mGlu1(N264H); format: cell-based
[4] = tested on: mGlu1 construct not given; assay: Fura-2 Ca2+ imaging in HEK293 cells, source data Suppl Fig1, right group (c18-c26); construct not given; format: cell-based, rat; conditions: single-cell values, cells #15-#20; right group of third block
Description: as §1

mGlu1 A59H/N264H mutant = biological target: T2, mGlu1 A59H/N264H mutant (Rattus norvegicus, UniProt P23385, A59H/N264H); assay: Fura-2 Ca2+ imaging in HEK293 cells expressing mGlu1 A59H/N264H; format: cell-based
T2 construct: expressed in transfected cells; host or cells: HEK293

WT mGlu1 = biological target: T3, WT mGlu1 (Rattus norvegicus, UniProt P23385); format: cell-based; conditions: single-cell values #1-#20; WT
T3 construct: expressed in transfected cells; host or cells: HEK293

mGlu1 P57H/N264H mutant = biological target: T4, mGlu1 P57H/N264H mutant (Rattus norvegicus, UniProt P23385, N264H/P57H); assay: Fura-2 Ca2+ imaging in HEK293 cells expressing mGlu1 P57H/N264H; format: cell-based; conditions: single-cell values #1-#20; P57H/N264H
T4 construct: expressed in transfected cells; host or cells: HEK293

[5] = tested on: HEK293 cells, control vector; assay: Inositol-1-phosphate (IP1) accumulation assay, HEK293 cells transfected with control vector; format: cell-based; conditions: 30 µM Pd(bpy); Vec
PC12 cells = assay: Cell proliferation assay of undifferentiated PC12 cells; conditions: for cell proliferation, Ave (Fig.4c): average of #1-#3
[6] = HEK293 cells, Fura-2, read-out: EC50, Ca2+ response (Δratio)

T2 sequence (P23385 19-1199 A59H/N264H): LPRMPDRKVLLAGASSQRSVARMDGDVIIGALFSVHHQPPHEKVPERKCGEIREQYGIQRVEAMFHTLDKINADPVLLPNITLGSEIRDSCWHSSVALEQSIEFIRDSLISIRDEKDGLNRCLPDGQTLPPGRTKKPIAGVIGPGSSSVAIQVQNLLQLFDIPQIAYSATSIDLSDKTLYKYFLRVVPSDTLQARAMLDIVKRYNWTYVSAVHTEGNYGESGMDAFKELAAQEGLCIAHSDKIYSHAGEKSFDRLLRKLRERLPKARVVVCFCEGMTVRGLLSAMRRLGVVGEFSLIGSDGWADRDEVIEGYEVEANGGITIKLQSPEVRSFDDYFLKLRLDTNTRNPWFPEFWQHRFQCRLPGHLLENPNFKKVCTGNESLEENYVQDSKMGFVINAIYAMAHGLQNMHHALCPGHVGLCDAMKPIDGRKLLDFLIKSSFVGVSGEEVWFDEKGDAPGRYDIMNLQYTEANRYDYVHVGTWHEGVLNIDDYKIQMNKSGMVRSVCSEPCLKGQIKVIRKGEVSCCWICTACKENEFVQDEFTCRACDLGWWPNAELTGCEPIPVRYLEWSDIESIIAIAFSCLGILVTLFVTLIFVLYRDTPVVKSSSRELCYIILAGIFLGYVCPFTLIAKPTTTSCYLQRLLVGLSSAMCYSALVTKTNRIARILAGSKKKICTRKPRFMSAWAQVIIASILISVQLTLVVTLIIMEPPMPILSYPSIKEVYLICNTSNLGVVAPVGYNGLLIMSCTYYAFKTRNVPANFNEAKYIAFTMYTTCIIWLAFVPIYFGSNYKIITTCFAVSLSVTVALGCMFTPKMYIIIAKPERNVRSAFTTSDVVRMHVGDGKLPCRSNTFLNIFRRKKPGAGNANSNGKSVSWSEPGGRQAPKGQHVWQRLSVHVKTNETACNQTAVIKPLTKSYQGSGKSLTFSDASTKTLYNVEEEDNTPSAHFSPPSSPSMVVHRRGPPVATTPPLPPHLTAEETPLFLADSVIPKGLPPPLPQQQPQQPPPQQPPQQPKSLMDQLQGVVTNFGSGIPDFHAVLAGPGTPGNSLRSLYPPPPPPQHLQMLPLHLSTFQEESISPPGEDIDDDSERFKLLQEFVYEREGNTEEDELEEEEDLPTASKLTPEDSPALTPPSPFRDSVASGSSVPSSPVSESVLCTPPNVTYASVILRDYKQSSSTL
T1 sequence (P23385 19-1199 N264H): as the sequence (P23385 19-1199 A59H/N264H) above, with H41A counted along it
T4 sequence (P23385 19-1199 P57H/N264H): as the sequence (P23385 19-1199 A59H/N264H) above, with P39H, H41A counted along it
T3 sequence (P23385 19-1199): as the sequence (P23385 19-1199 A59H/N264H) above, with H41A, H246N counted along it

O=[N+]([O-])[O-].O=[N+]([O-])[O-].[Pd+2].c1ccc(-c2ccccn2)nc1 [Pd(bpy), Pd(bpy)(NO3)2]
Ca2+ response of individual cells (source data, sheet Suppl Fig1) [1]: 0.04373 and -0.04935 and -0.001077 and -0.04196 and -0.007292 and 0.01256
IP1 accumulation, single experiments (mGlu1(N264H) mutant [2]; 30 µM Pd(bpy), N264H): 1.924 and 2.4034 and 1.9034 and 1.783
IP3 production evaluated by IP1 accumulation (mGlu1(N264H) mutant [2]; Pd(bpy) 30 µM / 10 μM (method)): increased
Positive allosteric effect: dose-dependency of glutamate-induced responses (mGlu1(N264H) mutant [3]; 3 µM Pd(bpy) in the presence of 10 µM LY367385): unaffected
Time to basal level after wash-out by culture medium (mGlu1(N264H) mutant [3]; 10 µM agonist, n = 15): 49.0 ± 6.4 s
EC50 (mGlu1(N264H) mutant [3]; [6]): 1600 nM
Pd(bpy) off (mGlu1(N264H) mutant [3]; ave of 15 cells): 49 s
Pd(bpy) on (mGlu1(N264H) mutant [3]; ave of 15 cells): 58 s
Effect on 100 μM glutamate-induced response (mGlu1(N264H) mutant [3]; in the presence of LY367385, P = 0.3803): not enhanced
Ca2+ response to Pd complex, individual cells #1-#20 (Fig.4e) (mGlu1(N264H) mutant [3]; single-cell values): 0.1987 and 0.007031 and 0.6462 and 0.6597 and 0.6897 and 0.134 and 0.5276 and 0.6019 and 0.1524 and 0.7025 and 0.5861 and 1.131 and 0.7531 and 0.5352 and 0.5053 and 0.4553 and 0.9996 and 0.7233 and 0.7477 and 0.221
Ca2+ response of individual cells (source data, sheet Suppl Fig1) [4]: 0.001923 and 0.0116 and 0.02873 and 0.01569 and 0.04602 and 0.003608
EC50 (mGlu1 A59H/N264H mutant; [6]): 3800 nM
Ca2+ response of individual cells (source data Suppl Fig1), A59H/N264H (mGlu1 A59H/N264H mutant; single-cell values #1-#20, A59H/N264H): 0.6362 and 0.8074 and 0.5582 and 0.806 and 0.7717 and -0.01028 and 0.5677 and 0.7063 and 0.5602 and 0.7126 and 0.6578 and 1.118 and 1.1499 and 0.77 and 0.5325 and 0.4993 and 0.7176 and 0.6258 and 0.8578 and 0.6525
Ca2+ response of individual cells (source data Suppl Fig1), WT (WT mGlu1): -0.002508 and 0.03248 and -0.005946 and 0.001185 and -0.01881 and -0.01405 and 0.05177 and 0.006038 and 0.01295 and 0.02212 and 0.002477 and -0.0007231 and 0.1314 and 0.1045 and 0.02565 and -0.005715 and 0.004592 and -0.01058 and -0.003931 and 0.0524
Ca2+ response of individual cells (source data Suppl Fig1), P57H/N264H (mGlu1 P57H/N264H mutant): 1.496 and 0.4197 and 0.3632 and 0.5618 and 0.3459 and 0.2699 and 0.5435 and -0.005777 and 0.04309 and 0.04215 and 0.5777 and 1 and 0.77 and 0.6187 and 0.5778 and -0.002723 and 0.1859 and 0.08165 and 0.3295 and 0.5272
IP1 accumulation, single experiments [5]: 1.069 and 0.9695 and 0.8004
Cell growth (PC12 cells; 30 μM): clearly suppressed
cell proliferation, single experiments #1-#3 (Fig.4c) (PC12 cells; Pd complex 1 µM): 1.5318 and 0.8604 and 0.8836
cell proliferation, Ave (Fig.4c) (PC12 cells; Pd complex 1 µM): 1.092
cell proliferation, single experiments #1-#3 (Fig.4c) (PC12 cells; Pd complex 3 µM): 1.071 and 0.9613 and 0.8889
cell proliferation, Ave (Fig.4c) (PC12 cells; Pd complex 3 µM): 0.9739
cell proliferation, single experiments #1-#3 (Fig.4c) (PC12 cells; Pd complex 10 µM): 1.234 and 0.8888 and 0.7605
cell proliferation, Ave (Fig.4c) (PC12 cells; Pd complex 10 µM): 0.961
cell proliferation, single experiments #1-#3 (Fig.4c) (PC12 cells; Pd complex 30 µM): 0.9447 and 0.7842 and 0.619

Source: PMC9203742 (Nature Communications, 2022)
